Laboratory results taken from US20250361210A1, “3,4-DIHYDROQUINOLIN-2(1H)-ONE COMPOUND” (Kissei Pharmaceutical Co., Ltd., priority 2022, published 2025).
pIC50: −log10 of the molar value.

Biological target: T1, TSHR (Mus musculus, UniProt P47750)
T1 construct: host or cells: mice (in vivo)
T1 sequence (P47750 22-764): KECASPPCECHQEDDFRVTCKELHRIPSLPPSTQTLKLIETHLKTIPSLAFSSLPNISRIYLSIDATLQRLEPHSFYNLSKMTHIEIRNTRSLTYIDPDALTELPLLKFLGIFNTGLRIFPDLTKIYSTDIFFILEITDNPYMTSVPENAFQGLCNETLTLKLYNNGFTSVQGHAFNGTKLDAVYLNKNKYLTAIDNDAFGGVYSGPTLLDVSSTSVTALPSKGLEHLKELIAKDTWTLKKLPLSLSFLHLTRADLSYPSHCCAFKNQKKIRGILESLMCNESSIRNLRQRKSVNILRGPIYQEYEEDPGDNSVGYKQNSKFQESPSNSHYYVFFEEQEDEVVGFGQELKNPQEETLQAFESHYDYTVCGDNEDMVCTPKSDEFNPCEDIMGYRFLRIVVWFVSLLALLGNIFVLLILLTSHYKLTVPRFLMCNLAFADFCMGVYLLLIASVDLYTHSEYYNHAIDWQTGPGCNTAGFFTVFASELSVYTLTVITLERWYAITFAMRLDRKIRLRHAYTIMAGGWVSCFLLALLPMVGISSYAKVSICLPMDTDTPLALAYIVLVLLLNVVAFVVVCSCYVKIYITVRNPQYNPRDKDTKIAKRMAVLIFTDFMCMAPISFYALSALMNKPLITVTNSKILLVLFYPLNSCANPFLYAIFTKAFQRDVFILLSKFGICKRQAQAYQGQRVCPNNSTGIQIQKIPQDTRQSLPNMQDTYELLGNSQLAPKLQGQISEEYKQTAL
Assay: not given
Settings: mice in which TRH has been administered and mice in which thyroid stimulating antibodies M22 has been administered; cited from earlier work
In the case of COc1ccc(C2Nc3ccccc3C(=O)N2Cc2ccco2)cc1COc1c(C)cc(NC(C)=O)cc1C (stereo not drawn) [NCGC00242364], the “blood T4 concentration” value is given as “blood T4 concentration lowering effect”.

Biological target: T2, human TSHR (Homo sapiens, UniProt P16473)
T2 construct: expressed in transfected cells
T2 sequence (P16473 21-764): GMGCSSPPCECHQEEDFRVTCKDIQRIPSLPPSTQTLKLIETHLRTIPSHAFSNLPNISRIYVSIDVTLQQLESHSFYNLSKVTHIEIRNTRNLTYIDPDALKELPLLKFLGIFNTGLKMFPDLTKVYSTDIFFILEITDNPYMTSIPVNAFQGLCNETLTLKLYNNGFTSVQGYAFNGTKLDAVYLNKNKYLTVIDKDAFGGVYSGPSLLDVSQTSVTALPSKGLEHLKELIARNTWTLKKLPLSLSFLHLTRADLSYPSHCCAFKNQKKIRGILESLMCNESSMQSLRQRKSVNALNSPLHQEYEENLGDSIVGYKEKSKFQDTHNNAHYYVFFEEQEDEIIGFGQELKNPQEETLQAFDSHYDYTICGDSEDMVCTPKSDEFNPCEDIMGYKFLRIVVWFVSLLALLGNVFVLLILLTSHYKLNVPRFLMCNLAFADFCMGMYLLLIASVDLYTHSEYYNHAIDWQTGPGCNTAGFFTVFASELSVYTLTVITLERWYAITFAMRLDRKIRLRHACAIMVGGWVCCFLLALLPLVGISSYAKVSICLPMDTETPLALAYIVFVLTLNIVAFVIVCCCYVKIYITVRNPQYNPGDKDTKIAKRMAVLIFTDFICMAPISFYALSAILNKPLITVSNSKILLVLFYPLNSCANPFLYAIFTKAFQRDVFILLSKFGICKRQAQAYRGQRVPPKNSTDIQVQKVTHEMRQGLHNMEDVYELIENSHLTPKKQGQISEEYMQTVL
Assay: Antagonist activity using TSH-induced cAMP production in human TSHR-stably expressing CHO cells
Assay type: cell-based
Settings: human TSH 50 ng/mL
Procedure: Measurement of Antagonist Activity Using TSH-Induced cAMP Production in Human TSHR-Stably Expressing CHO Cells as an Indicator
The human TSHR gene sequence (reference number NM_000369.2) was inserted into the multicloning site of pcDNA3.1(+). The constructed plasmid vector was introduced into CHO cells using the lipofection method to establish human TSHR-stably expressing CHO cells. The obtained cells were seeded at 5×10^4 cells/well in a 96-well poly-D-lysine-coated plate, and cultured in an F12 culture medium containing 10% FBS, 400 μg/mL of G418, 50 U/mL of penicillin and 50 μg/mL of streptomycin under conditions of 37° C. and 5% CO2 for 1 day. After the culture medium was removed, the cells were washed twice with 100 μL of an assay buffer solution (Hanks' Balanced Salt Solution containing 20 mM HEPES and 1 mM IBMX) per well. 30 μL of a test compound-containing assay buffer solution was added to the well and incubated at room temperature for 15 minutes. Then, 30 μL of an assay buffer solution containing human TSH (final concentration 50 ng/mL, R&D Systems, Inc.) was added, and incubated at 37° C. for 1 hour. The supernatant was removed, a Lysis and Detection Buffer 2 (Cisbio) was added, and the mixture was incubated at room temperature for 1 hour to prepare a cell lysate. According to the instruction manual of a cAMP Gs HiRange kit (Cisbio), the cell lysate, d2-labeled cAMP and anti-cAMP Europium Cryptate labeled antibodies (Cisbio) were reacted in a 384-well white microplate. Then, a fluorescence intensity ratio (measurement wavelength 665 nm/620 nm) was measured using a multi-plate reader (PHERAstar FSX, BMG LABTECH, Japan). The fluorescence intensity ratio of each sample was converted to a cAMP content using a standard curve. The cAMP content was converted as a percentage of the control value to calculate the cAMP production rate. The CAMP production rate was plotted against the test compound concentration using Prism (Graph Pad Software Inc.) to calculate the IC50 value. The IC50 of each test compound is shown in the above tables. In the tables, IC50<0.5 μM: A, 0.5 μM≤IC50<3.0 μM: B, 3.0 μM≤IC50<30 μM: C are shown.
For CC(c1ccccc1C(F)(F)F)c1cccc2c1N(C)C(=O)[C@H](NC(N)=O)C2 (stereo partly drawn) [Example 78, ((3R)-1-Methyl-2-oxo-8-(1-(2-(trifluoromethyl)phenyl)ethyl)-1,2,3,4-tetrahydroquinolin-3-yl)urea], the pIC50 was > 6.30. In the case of CC(c1cc(F)ccc1Cl)c1cccc2c1N(C)C(=O)[C@H](NC(N)=O)C2 (stereo partly drawn) [Example 79], the pIC50 was > 6.30. In the case of CNC(=O)N[C@@H]1Cc2ccc(C)c(Oc3cc(F)ccc3Cl)c2N(C)C1=O [Example 80, 1-((3R)-8-(2-chloro-5-fluorophenoxy)-1,7-dimethyl-2-oxo-1,2,3,4-tetrahydroquinolin-3-yl)-3-methylurea], the pIC50 was > 6.30. In the case of CC(=O)N[C@@H]1Cc2ccc(C)c(Oc3cc(F)ccc3Cl)c2N(C)C1=O [Example 81, N-((3R)-8-(2-chloro-5-fluorophenoxy)-1,7-dimethyl-2-oxo-1,2,3,4-tetrahydroquinolin-3-yl)acetamide], the pIC50 was > 6.30. In the case of Cc1ccc2c(c1Oc1cc(F)ccc1Cl)N(C)C(=O)[C@H](NC(=O)C1CC1)C2 [Example 82], the pIC50 was > 6.30. For Cc1ccc2c(c1Oc1cc(F)ccc1Cl)N(C)C(=O)[C@H](NC(=O)C(Cl)Cl)C2 [Example 83], the pIC50 was > 6.30. For CN1C(=O)[C@H](NC(=O)C2CC2)Cc2cccc(Oc3cc(F)ccc3Cl)c21 [Example 84], the pIC50 was > 6.30. For Cc1ccc2c(c1Oc1cc(F)ccc1Cl)N(C)C(=O)[C@H](NC(=O)CC(F)(F)F)C2 [Example 85, N-((3R)-8-(2-chloro-5-fluorophenoxy)-1,7-dimethyl-2-oxo-1,2,3,4-tetrahydroquinolin-3-yl)-3,3,3-trifluoropropanamide], the pIC50 was > 6.30.
